From the NIST ThermoML archive (doi:10.1016/j.jct.2008.03.011)

Experiments:
[1] = refractive index (Na D-line) (dimensionless); xn = mol fraction of the nth substance listed; details: 101 kPa, Liquid, Standard Abbe refractometry
[2] = xn = mol fraction of the nth substance listed; details: 101 kPa, Liquid; for speed of sound: Sing-around technique in a fixed-path interferometer

CCC(C)=O [butanone] + C1CCCCC1
Details | mass density, 293.15 K [kg/m3] | mass density, 298.15 K [kg/m3] | mass density, 303.15 K [kg/m3] | refractive index, 293.15 K | refractive index, 298.15 K | refractive index, 303.15 K | speed of sound, 293.15 K [m/s] | speed of sound, 298.15 K [m/s] | speed of sound, 303.15 K [m/s]
[1], x2 = 0 | – | – | – | 1.37879 | 1.37618 | 1.37355 | – | – | –
[1], x2 = 0.0472 | – | – | – | 1.38079 | 1.37811 | 1.3754 | – | – | –
[1], x2 = 0.0979 | – | – | – | 1.3829 | 1.38016 | 1.37748 | – | – | –
[1], x2 = 0.1986 | – | – | – | 1.38711 | 1.38436 | 1.38159 | – | – | –
[1], x2 = 0.2973 | – | – | – | 1.39144 | 1.38857 | 1.38588 | – | – | –
[1], x2 = 0.3975 | – | – | – | 1.39592 | 1.3929 | 1.39029 | – | – | –
[1], x2 = 0.497 | – | – | – | 1.40055 | 1.39774 | 1.39494 | – | – | –
[1], x2 = 0.6045 | – | – | – | 1.40575 | 1.4026 | 1.40014 | – | – | –
[1], x2 = 0.6922 | – | – | – | 1.41006 | 1.40723 | 1.40443 | – | – | –
[1], x2 = 0.7984 | – | – | – | 1.4153 | 1.4125 | 1.4097 | – | – | –
[1], x2 = 0.8978 | – | – | – | 1.42041 | 1.41769 | 1.41473 | – | – | –
[1], x2 = 0.9476 | – | – | – | 1.42316 | 1.42035 | 1.41746 | – | – | –
[2], x2 = 0 | 805.6 | 799.7 | 794.9 | – | – | – | 1212 | 1192 | 1163
[2], x2 = 0.0472 | 802.6 | 796.4 | 791.5 | – | – | – | 1212 | 1190 | 1159
[2], x2 = 0.0979 | 799.8 | 793.7 | 788.8 | – | – | – | 1213 | 1190 | 1159
[2], x2 = 0.1986 | 794.7 | 788.8 | 784 | – | – | – | 1212 | 1190 | 1158
[2], x2 = 0.2973 | 790.3 | 784.8 | 779.9 | – | – | – | 1212 | 1190 | 1158
[2], x2 = 0.3975 | 786.6 | 781.4 | 776.4 | – | – | – | 1216 | 1192 | 1161
[2], x2 = 0.497 | 783.7 | 778.4 | 773.5 | – | – | – | 1221 | 1198 | 1166
[2], x2 = 0.6045 | 781 | 776.1 | 771.1 | – | – | – | 1229 | 1204 | 1172
[2], x2 = 0.6922 | 779.5 | 774.6 | 769.6 | – | – | – | 1236 | 1212 | 1179
[2], x2 = 0.7984 | 778.2 | 773.4 | 768.5 | – | – | – | 1248 | 1222 | 1188
[2], x2 = 0.8978 | 777.8 | 773.1 | 768.2 | – | – | – | 1261 | 1236 | 1200
[2], x2 = 0.9476 | 778 | 773.2 | 768.5 | – | – | – | 1269 | 1244 | 1207
